{"source": "patent US5731334A", "about": "“Method for treating cancer using taxoid onium salt prodrugs” (priority 1995, dated 1998)", "key": {"[1]": {"system": "PC-3 prostate carcinoma cells", "experiment": "XTT dye binding cytotoxicity assay, PC-3", "type": "cell-based", "conditions": "Homo sapiens, 72 h", "method": "(§1) All cell lines described herein were obtained from the ATCC and maintained in media formulations as recommended by the supplier. The cell lines were tested for mycoplasma contamination prior to incubation at 37° C. in 5% carbon dioxide. Normal human dermal fibroblasts, peripheral blood lymphoblasts and mammary epithelial cells were obtained from Clonogenic Cor., San Diego, Calif. and were maintained under the above incubation conditions in special media provided by the supplier.\n(§2) Antiproliferative activities of the onium salts were determined using the XTT dye binding assay. Cells were harvested with trypsin/EDTA (Irvine Scientific), washed, resuspended in the appropriate medium, and counted in a hemocytometer using Trypan Blue to determine viability. Then 10^4 cells/well were added to 96 well microtiter plates and incubated for 24 hours before addition of drug at concentrations in the range of 10^-4 to 10^-13 molar by direct addition from DMSO solutions. After 72 hours, XTT binding dye was added and incubation was continued for 4 hours. The inhibition of cell proliferation was quantified using a Molecular Devices Microplate Reader. The absorbance of XTT was measured at […]. The concentration of drug which inhibited growth of cells by 50% was calculated from duplicated determinations."}, "L-1210 leukemia cells": {"system": "L-1210 leukemia cells", "experiment": "XTT dye binding cytotoxicity assay, L-1210", "type": "cell-based, mouse", "conditions": "Mus musculus, L1210, 72 h", "method": "as §1, §2"}, "[2]": {"system": "HT-29 colon carcinoma cells", "experiment": "XTT dye binding cytotoxicity assay, HT-29", "type": "cell-based", "conditions": "Homo sapiens, HT-29, 72 h", "method": "as §1, §2"}, "[3]": {"system": "Molt-4 T-cell leukemia cells", "experiment": "XTT dye binding cytotoxicity assay, Molt-4", "type": "cell-based", "conditions": "Homo sapiens, MOLT-4, 72 h", "method": "as §1, §2"}, "[4]": {"experiment": "Plasma stability and prodrug reversion (ethyl acetate extraction, HPLC)"}, "[5]": {"system": "OVCAR-3 ovarian carcinoma cells", "experiment": "XTT dye binding cytotoxicity assay, OVCAR-3", "type": "cell-based", "conditions": "Homo sapiens, OVCAR-3, 72 h", "method": "as §1, §2"}, "NHDF dermal fibroblast": {"system": "NHDF dermal fibroblast", "experiment": "XTT dye binding cytotoxicity assay, NHDF", "type": "cell-based", "conditions": "Homo sapiens, 72 h", "method": "as §1, §2"}, "[6]": {"experiment": "Toxicity and survival in vivo (tumor bearing nude mice)"}, "[7]": {"system": "RPMI-7666 blood lymphoblasts", "experiment": "XTT dye binding cytotoxicity assay, RPMI-7666", "type": "cell-based", "conditions": "Homo sapiens, 72 h", "method": "as §1, §2"}, "intact Molt-4 cells": {"system": "intact Molt-4 cells", "experiment": "Competition binding of tritiated compounds to intact Molt-4 cells", "parameters": "species or system human", "conditions": "calculated from slopes of linear portions of curves in FIG. 3; read-out: binding constant", "method": "The competition by nonradioactive taxol or c-2'-MPA-taxol for the binding of 1×10^-9 M tritiated compounds by intact Molt-4 cells is illustrated in FIG. 3. Tritiated taxol (Moravek Corp.) was treated with 2-fluoropyridiunium tosylate according to the method of Nicolaou et al. to yield the C-2'-MPT-^3 H-taxol. (Angew. Chem., Int. Ed. 1994: vol. 34, pp. 1583-1587.) Six well plates were incubated with 10^6 Molt-4 cells in 50 mM phosphate buffered saline (PBS) or PRPMI media to which 10^-9 M of the radiolabeled taxol or taxol onium salt was added together with increasing concentrations of nonradiolabeled compound. After 30 minutes, the cells were centrifuged, washed with PBS and 1% SDS was added. […] Alternatively, the cells may be lysed by sonication."}, "tubulin": {"system": "tubulin", "experiment": "Tubulin polymerization-depolymerization (microtubule assembly-disassembly) assay", "type": "biochemical, calf", "conditions": "CaCl2; 10^-6 M drug; 37° C.; in words; listed as taxol"}, "[8]": {"system": "M-24 metastatic melanoma cells", "experiment": "XTT dye binding cytotoxicity assay, M-24", "type": "cell-based", "conditions": "Homo sapiens, M24, 72 h", "method": "as §1, §2"}, "[9]": {"system": "SK-N-SH neuroblastoma cells", "experiment": "XTT dye binding cytotoxicity assay, SK-N-SH", "type": "cell-based", "conditions": "Homo sapiens, 72 h", "method": "as §1, §2"}, "[10]": {"system": "PC-3 prostate carcinoma tumor xenograft", "experiment": "PC-3 prostate tumor xenograft in nude mice", "quoted_text": "Athymic nude mice were purchased from Harlan-Sprague-Dawley. The animals were housed in microisolated cases under positive air pressure and all manipulations and drug treatments were performed in a laminar flow cabinet. Tumor cells were grown under the above tissue culture conditions. Cell suspensions in RPMI medium were injected S./C. Treatment was started one day after inoculation by i.p. injection of 400 μl drug solutions. Tumors were measured 3 times weekly in two dimensions, using calipers and tumor volume as calculated using the formula (V=w^2 ×L×(3.142).\nThe tumor model was generated from an ATTC PC-3 prostate carcinoma cell line that was maintained under standard cell proliferation conditions, viz. 37° C., 5% carbon dioxide in sterile air. Each cohort was comprised of eight randomly chosen female athymic nude mice, for a total population size of twenty four. Hemocytometer counted cells, suspended in Hanks mediun (Gibco, Grand Island N.Y.) were implanted S.C. (10^6 cells in 0.4 mL per mouse). Solid tumor growth was measured on each third day. Equimolar amounts of the test compounds (1.0 mM, 400 μL) were injected i.p. on days 1, 3, 5, 7, 9, and 11 using the following media:\n(.smallcircle.): Control, 5% dextrose in 5× distilled water (5 DW)\n(Δ): Taxol (18.0 mg/kg of animal weight or approximately 1.260 mg/m^2) suspended in Cremaphor/D5W\nInferences about efficacy were drawn by ANOVA followed by protected t-test. […] Data shown as mean value with standard error."}, "human tumor xenografts": {"system": "human tumor xenografts", "experiment": "In vivo antitumor effect (human tumor xenografts in nude mice)"}, "[11]": {"conditions": "cited from earlier work"}, "[12]": {"system": "BT-549 breast carcinoma cells", "experiment": "XTT dye binding cytotoxicity assay, BT-549", "type": "cell-based", "conditions": "Homo sapiens, BT-549, 72 h", "method": "as §1, §2"}, "[13]": {"experiment": "In vivo elimination in BALB/C mice", "conditions": "24 hours after injection", "method": "C-2'-MPA-Taxol (1 mM in 0.9% saline solution, 400 μL) was injected along with tritiated taxol at 32000 cpm into normal BALB/C mice (4 mice each) housed in metabolic cages and the urine and feces were measured periodically in a scintillation counter using Achillea scintillation fluid.\nThe antitumor activity of the onium salts of taxol were assessed in nude mice bearing tumors of human A-549 lung adenocarcinomas, Ovcar-3 ovarian carcinoma, and PC-3 prostate carcinoma cells. […] FIG. 5 illustrates antiproliferation results for 2'-MPA-3-thiophene-taxol (4) and 2' MPA taxol (2) for the Ovcar-3 human tumor xenograft. […] FIG. 6, summarizes the results for a PC-3, prostate tumor model study. Taxol was compared with both the 2'- and 7-substituted oxonium salts. […] Tritiated taxol and 2' MPA-taxol were used in drug elimination experiments in normal BALB/C mice. In both groups of mice of four animals each, only 4-5% of the administered radioactivity was measured in the combined urine and feces 24 hours after injection."}, "[14]": {"system": "A-549 lung carcinoma cells", "experiment": "XTT dye binding cytotoxicity assay, A-549", "type": "cell-based", "conditions": "Homo sapiens, A549, 72 h", "method": "as §1, §2"}, "[15]": {"experiment": "Comparative toxicities (lethality) in mice"}, "[16]": {"system": "UCLA-P3 lung carcinoma cells", "experiment": "XTT dye binding cytotoxicity assay, UCLA-P3", "type": "cell-based", "conditions": "Homo sapiens, UCLA P-3, 72 h", "method": "as §1, §2"}, "[17]": {"conditions": "cited from earlier work", "remark": "listed apart in the source"}, "[18]": {"system": "SIHA squamous carcinoma cells", "experiment": "XTT dye binding cytotoxicity assay, SIHA", "type": "cell-based", "conditions": "Homo sapiens, SiHa, 72 h", "method": "as §1, §2"}, "[19]": {"system": "Capan 1 pancreas cancer cells", "experiment": "XTT dye binding cytotoxicity assay, Capan 1", "type": "cell-based", "conditions": "Homo sapiens, CAPAN-1, 72 h", "method": "as §1, §2"}, "[20]": {"conditions": "cited from earlier work", "remark": "listed apart in the source"}, "[21]": {"system": "786-0 renal cell carcinoma cells", "experiment": "XTT dye binding cytotoxicity assay, 786-0", "type": "cell-based", "conditions": "Homo sapiens, 786-0, 72 h", "method": "as §1, §2"}, "SK-Mel-28 melanoma cells": {"system": "SK-Mel-28 melanoma cells", "experiment": "XTT dye binding cytotoxicity assay, SK-Mel-28", "type": "cell-based", "conditions": "Homo sapiens, SK-MEL-28, 72 h", "method": "as §1, §2"}, "[22]": {"system": "HMEC mammary epithelial cells", "experiment": "XTT dye binding cytotoxicity assay, HMEC", "type": "cell-based", "conditions": "Homo sapiens, 72 h", "method": "as §1, §2"}, "U-2511 CNS cancer cells": {"system": "U-2511 CNS cancer cells", "experiment": "XTT dye binding cytotoxicity assay, U-2511", "type": "cell-based", "conditions": "Homo sapiens, 72 h", "method": "as §1, §2"}, "[23]": {"system": "HL-60 promyelocytic leukemia cells", "experiment": "XTT dye binding cytotoxicity assay, HL-60", "type": "cell-based", "conditions": "Homo sapiens, HL-60, 72 h", "method": "as §1, §2"}, "[24]": {"system": "CHO Chinese hamster ovary cells", "experiment": "XTT dye binding cytotoxicity assay, CHO", "type": "cell-based", "conditions": "Cricetulus griseus, 72 h", "method": "as §1, §2"}}, "note": "Entries after “also recorded” stand apart in the source; their conditions may differ.", "data": [{"smiles": "CC(=O)O[C@H]1C(=O)[C@@]2(C)[C@H]([C@H](OC(=O)c3ccccc3)[C@]3(O)C[C@H](OC(=O)[C@H](O)[C@@H](NC(=O)c4ccccc4)c4ccccc4)C(C)=C1C3(C)C)[C@]1(OC(C)=O)CO[C@@H]1C[C@@H]2O", "note": "[Compound 1, reference compound]", "values": [{"measurement": "IC50", "setting": "[1]", "value": 1.01, "unit": "nM"}, {"measurement": "IC50", "setting": "L-1210 leukemia cells", "value": 3.24, "unit": "nM"}, {"measurement": "IC50", "setting": "[2]", "value": 1.16, "unit": "nM"}, {"measurement": "IC50", "setting": "[3]", "value": 0.096, "unit": "nM"}, {"measurement": "Plasma Stability t1/2", "setting": "[4]; human plasma, 37° C., Table II", "value": "stable"}, {"measurement": "recovery", "setting": "[4]; human, plasma", "value": 95, "unit": "%"}, {"measurement": "IC50", "setting": "[5]", "value": 0.74, "unit": "nM"}, {"measurement": "IC50", "setting": "NHDF dermal fibroblast", "value": 765, "unit": "nM"}, {"measurement": "Toxicity", "setting": "[6]; Table II, in vivo", "value": "high"}, {"measurement": "% survival", "setting": "[6]; at end of experiments", "value": "0-20%"}, {"measurement": "in vivo tolerance / toxicity in words", "setting": "[6]; nude mice", "value": "both visual toxicity and animal weight losses were observed"}, {"measurement": "IC50", "setting": "[7]", "value": 584, "unit": "nM"}, {"measurement": "Kd", "setting": "intact Molt-4 cells", "value": 5, "unit": "nM"}, {"measurement": "inhibition of calcium chloride induced depolymerization of microtubules", "setting": "tubulin", "value": "essentially complete inhibition of depolymerization; also recorded: suppressed by taxol"}, {"measurement": "IC50", "setting": "[8]", "value": 0.018, "unit": "nM"}, {"measurement": "IC50", "setting": "[9]", "value": 2.38, "unit": "nM"}, {"measurement": "antitumor activity, PC-3", "setting": "[10]; 1.0 mM, 400 μL i.p., established tumors", "value": "regression of established tumors"}, {"measurement": "mice surviving treatment, PC-3", "setting": "[10]; in vivo", "value": "3 out of 8 mice"}, {"measurement": "in vivo antitumor efficacy in words", "setting": "human tumor xenografts", "value": "when taxol was administered at somewhat lower doses, its efficacy was significantly diminished"}, {"measurement": "dose-limiting toxicity", "setting": "[11]; pediatric patients, 24 hour i.v. infusion", "value": "neurotoxicity"}, {"measurement": "dose at which dose-limiting toxicity occurred", "setting": "[11]; pediatric patients, neurotoxicity", "value": 420, "unit": "mg/m^2"}, {"measurement": "recommended phase II dose", "setting": "[11]; pediatric population", "value": 350, "unit": "mg/m^2 /d"}, {"measurement": "IC50", "setting": "[12]", "value": 0.066, "unit": "nM"}, {"measurement": "administered radioactivity in the combined urine and feces", "setting": "[13]", "value": "4-5%"}, {"measurement": "IC50", "setting": "[14]", "value": 5.79, "unit": "nM"}, {"measurement": "50% lethality, equivalent dose", "setting": "[15]; mice, four times on alternating days, approximately equivalent dose", "value": "1,120-1,260 mg/m^2"}, {"measurement": "LD50", "setting": "[15]; mouse, in vivo", "value": "16 to 18", "unit": "mg/kg"}, {"measurement": "IC50", "setting": "[16]", "value": 0.66, "unit": "nM"}, {"measurement": "dose limiting toxicity", "setting": "[17]; 300 mg/m^2 /day", "value": "peripheral neuropathy"}, {"measurement": "tolerated taxol dose", "setting": "[17]; 24 hour i.v. infusion every 3 weeks, with G-CSF", "value": 250, "unit": "mg/m^2"}, {"measurement": "IC50", "setting": "[18]", "value": 8.89, "unit": "nM"}, {"measurement": "IC50", "setting": "[19]", "value": 0.967, "unit": "nM"}, {"measurement": "solubility in aqueous media", "setting": "[20]", "value": "low solubility"}, {"measurement": "IC50", "setting": "[21]", "value": 10.8, "unit": "nM"}, {"measurement": "IC50", "setting": "SK-Mel-28 melanoma cells", "value": 524, "unit": "nM"}, {"measurement": "IC50", "setting": "[22]", "value": 62, "unit": "nM"}, {"measurement": "IC50", "setting": "U-2511 CNS cancer cells", "value": 15.6, "unit": "nM"}, {"measurement": "IC50", "setting": "[23]", "value": 0.061, "unit": "nM"}, {"measurement": "IC50", "setting": "[24]", "value": 615, "unit": "nM"}]}]}
